Read-outs that look alike come from different tables or passages of the source.
Legend:
hGLP-1R = hGLP-1R (Homo sapiens, UniProt P43220); test: Functional cAMP formation (HTRF) in HEK-293 clonal cells expressing hGLP-1R, 0.1% bovine casein, without or with 1.0% human serum albumin; assay type: cell-based; set-up: expressed in transfected cells; settings: for Emax: 0.1% bovine casein, arithmetic mean; for EC50: cAMP, 0.1% bovine casein (no human serum albumin), geometric mean
Method: After a 30-min incubation at 37° C., the resulting increase in intracellular cAMP is quantitatively determined using a CisBio cAMP Dynamic 2 HTRF Assay Kit (62AM4PEJ). Briefly, cAMP levels within the cell are detected by adding the cAMP-d2 conjugate in cell lysis buffer (10 µL) followed by the antibody anti-cAMP-Eu^3+-Cryptate, also in cell lysis buffer (10 µL). The resulting competitive assay is incubated for at least 60 min at room temperature, and then is detected using a PerkinElmer Envision® instrument with excitation at 320 nm and emission at 665 nm and 620 nm. Envision units (emission at 665 nm/620 nm* 10,000) are inversely proportional to the amount of cAMP present and are converted to nM cAMP per well us-ing a cAMP standard curve. […] A relative EC50 value and percent top (Emax) are derived by non-linear regression analysis using the percent maximal response vs. the concentration of peptide added, fitted to a four-parameter logistic equation.

hGCGR = biological target: T1, hGCGR (Homo sapiens, UniProt P47871); test: Functional cAMP formation (HTRF) in HEK-293 clonal cells expressing hGCGR, 0.1% bovine casein, without or with 1.0% human serum albumin; assay type: cell-based; settings: geometric mean
T1 construct: expressed in transfected cells
Procedure, shortened: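 Cells were stimulated with peptide for 30 min at 37° C, then lysed in buffer carrying cAMP-d2 and anti-cAMP Eu3+-cryptate for a competitive HTRF read after at least 60 min at room temperature. The 665/620 nm ratio was converted to nM cAMP against a standard curve.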

[1] = HEK293, read-out: hGLP-1R Emax, % ± SEM, percent of maximal response to GLP-1(7-36)NH2, 37° C.
[2] = hGLP-1R EC50, nM (SEM, n), incubated at 37° C.
[3] = hGCGR EC50, nM (SEM, n), cAMP, incubated at 37° C., 0.1% bovine casein (no human serum albumin)

T1 sequence (P47871 26-477): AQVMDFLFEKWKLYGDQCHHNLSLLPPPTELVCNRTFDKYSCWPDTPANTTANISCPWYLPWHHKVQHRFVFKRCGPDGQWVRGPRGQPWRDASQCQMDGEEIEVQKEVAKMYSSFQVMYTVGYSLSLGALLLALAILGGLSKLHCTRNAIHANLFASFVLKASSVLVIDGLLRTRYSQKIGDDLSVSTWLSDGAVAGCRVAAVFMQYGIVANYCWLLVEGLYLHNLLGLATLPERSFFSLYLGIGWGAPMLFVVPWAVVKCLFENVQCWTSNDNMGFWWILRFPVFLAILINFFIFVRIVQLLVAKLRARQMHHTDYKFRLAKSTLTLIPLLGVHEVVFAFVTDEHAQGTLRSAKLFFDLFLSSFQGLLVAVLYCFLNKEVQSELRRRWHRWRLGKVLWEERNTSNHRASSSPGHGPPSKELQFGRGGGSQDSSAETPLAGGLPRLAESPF
Chain of hGLP-1R (P43220 24-463): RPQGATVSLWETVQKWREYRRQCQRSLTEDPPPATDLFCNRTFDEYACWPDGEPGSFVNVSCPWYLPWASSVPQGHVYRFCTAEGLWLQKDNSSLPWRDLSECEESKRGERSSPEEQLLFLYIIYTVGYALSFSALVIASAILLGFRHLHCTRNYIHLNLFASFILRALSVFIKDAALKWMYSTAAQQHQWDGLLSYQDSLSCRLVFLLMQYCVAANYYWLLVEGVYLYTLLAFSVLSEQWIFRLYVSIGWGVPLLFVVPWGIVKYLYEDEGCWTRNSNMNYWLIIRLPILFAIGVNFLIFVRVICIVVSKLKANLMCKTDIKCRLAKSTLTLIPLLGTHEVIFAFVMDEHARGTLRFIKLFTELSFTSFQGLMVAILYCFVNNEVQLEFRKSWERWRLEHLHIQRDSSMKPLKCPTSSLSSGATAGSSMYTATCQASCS

| Compound | Emax (hGLP-1R; [1]) | EC50 (hGLP-1R; [2]) | EC50 (hGCGR; [3]) | also measured |
| --- | --- | --- | --- | --- |
| CC[C@H](C)[C@H](NC(=O)[C@H](CC(C)C)NC(=O)[C@](C)(Cc1ccc(O)cc1)NC(=O)[C@H](CCCCNC(=O)[C@@H](N)CCCCNC(=O)CC[C@H](NC(=O)CCCCCCCCCCCCC(=O)O)C(=O)O)NC(=O)[C@@H](NC(=O)[C@H](Cc1ccccc1)NC(=O)[C@H](CCC(=O)O)NC(=O)C(C)(C)NC(=O)[C@H](CCC(N)=O)NC(=O)[C@H](C)NC(=O)[C@H](CCCCNC(=O)[C@@H](N)CCCCNC(=O)CC[C@H](NC(=O)CCCCCCCCCCCCC(=O)O)C(=O)O)NC(=O)[C@H](CCCN)NC(=O)[C@H](CC(=O)O)NC(=O)[C@H](CC(C)C)NC(=O)[C@](C)(CC(C)C)NC(=O)[C@@H](NC(=O)C(C)(C)NC(=O)[C@@H](NC(=O)[C@H](CC(=O)O)NC(=O)[C@H](CO)NC(=O)[C@@H](NC(=O)[C@](C)(Cc1ccccc1F)NC(=O)[C@@H](NC(=O)CNC(=O)[C@H](CCC(=O)O)NC(=O)C(C)(C)NC(=O)[C@@H](N)Cc1ccc(O)cc1)[C@@H](C)O)[C@@H](C)O)C(C)C)[C@@H](C)CC)[C@@H](C)CC)C(=O)N[C@@H](CCC(=O)O)C(=O)NCC(=O)NCC(=O)N1CCC[C@H]1C(=O)N[C@@H](CO)C(=O)N[C@@H](CO)C(=O)NCC(=O)N[C@@H](C)C(=O)N1CCC[C@H]1C(=O)N1CCC[C@H]1C(=O)N1CCC[C@H]1C(=O)N[C@@H](CO)C(N)=O [Example 167] | 91.4 ± 3.21% | 0.217 nM | > 9950 nM |  |
| CC[C@H](C)[C@H](NC(=O)[C@H](CC(C)C)NC(=O)[C@](C)(Cc1ccc(O)cc1)NC(=O)[C@@H](CCC(=O)O)NC(=O)[C@@H](NC(=O)[C@H](Cc1ccccc1)NC(=O)[C@H](CCC(=O)O)NC(=O)C(C)(C)NC(=O)[C@H](CCC(N)=O)NC(=O)[C@H](C)NC(=O)[C@H](CCCCNC(=O)COCCOCCNC(=O)COCCOCCNC(=O)CC[C@H](NC(=O)CCCCCCCCCCCCC(=O)O)C(=O)O)NC(=O)[C@H](CCCN)NC(=O)[C@H](CC(=O)O)NC(=O)[C@H](CC(C)C)NC(=O)[C@](C)(CC(C)C)NC(=O)[C@@H](NC(=O)[C@H](CO)NC(=O)[C@H](Cc1ccc2ccccc2c1)NC(=O)[C@H](CC(=O)O)NC(=O)[C@H](CO)NC(=O)[C@@H](NC(=O)[C@](C)(Cc1ccccc1F)NC(=O)[C@@H](NC(=O)CNC(=O)[C@H](CCC(=O)O)NC(=O)C(C)(C)NC(=O)[C@@H](N)Cc1ccc(O)cc1)[C@@H](C)O)[C@@H](C)O)[C@@H](C)CC)[C@@H](C)CC)C(=O)N[C@@H](CCCCNC(=O)COCCOCCNC(=O)COCCOCCNC(=O)CC[C@H](NC(=O)CCCCCCCCCCCCC(=O)O)C(=O)O)C(=O)NCC(=O)NCC(=O)N1CCC[C@H]1C(=O)N[C@@H](CO)C(=O)N[C@@H](CO)C(=O)NCC(=O)N[C@@H](C)C(=O)N1CCC[C@H]1C(=O)N1CCC[C@H]1C(=O)N1CCC[C@H]1C(=O)N[C@@H](CO)C(N)=O [Example 250] |  |  |  | Emax (hGLP-1R; HEK293, cAMP, 37° C., percent of maximal response to GLP-1(7-36)NH2, read-out: hGLP-1R Emax, % ± SEM): 114%; EC50 (hGLP-1R; 37° C., read-out: hGLP-1R EC50, nM (SEM, n)): 0.414 nM; EC50 (hGCGR; 0.1% bovine casein and 1.0% human serum albumin, 37° C., read-out: hGCGR EC50, nM (SEM, n)): > 9950 nM; EC50 (hGCGR; cAMP, 37° C., 0.1% bovine casein (no human serum albumin), read-out: hGCGR EC50, nM (SEM, n)): > 9950 nM |
| CC[C@H](C)[C@H](NC(=O)[C@H](CC(C)C)NC(=O)[C@](C)(Cc1ccc(O)cc1)NC(=O)[C@@H](CCC(=O)O)NC(=O)[C@@H](NC(=O)[C@H](Cc1ccccc1)NC(=O)[C@H](CCCCNC(=O)COCCOCCNC(=O)COCCOCCNC(=O)CC[C@H](NC(=O)CCCCCCCCCOc1ccc(C(=O)O)cc1)C(=O)O)NC(=O)C(C)(C)NC(=O)[C@H](CCC(N)=O)NC(=O)[C@H](C)NC(=O)[C@H](CCCCNC(=O)COCCOCCNC(=O)COCCOCCNC(=O)CC[C@H](NC(=O)CCCCCCCCCOc1ccc(C(=O)O)cc1)C(=O)O)NC(=O)[C@H](CCCN)NC(=O)[C@H](CC(=O)O)NC(=O)[C@H](CC(C)C)NC(=O)[C@](C)(CC(C)C)NC(=O)[C@@H](NC(=O)[C@H](CO)NC(=O)[C@H](Cc1ccncc1)NC(=O)[C@H](CC(=O)O)NC(=O)[C@H](CO)NC(=O)[C@@H](NC(=O)[C@](C)(Cc1ccccc1F)NC(=O)[C@@H](NC(=O)CNC(=O)[C@H](CCC(=O)O)NC(=O)C(C)(C)NC(=O)[C@@H](N)Cc1ccc(O)cc1)[C@@H](C)O)[C@@H](C)O)[C@@H](C)CC)[C@@H](C)CC)C(=O)N[C@@H](CCC(=O)O)C(=O)NCC(=O)NCC(=O)N1CCC[C@H]1C(=O)N[C@@H](CO)C(=O)N[C@@H](CO)C(=O)NCC(=O)N[C@@H](C)C(=O)N1CCC[C@H]1C(=O)N1CCC[C@H]1C(=O)N1CCC[C@H]1C(=O)N[C@@H](CO)C(N)=O [Example 127] | 98.5% |  | > 9950 nM |  |
| CC[C@H](C)[C@H](NC(=O)[C@H](CC(C)C)NC(=O)[C@](C)(Cc1ccc(O)cc1)NC(=O)[C@@H](CCC(=O)O)NC(=O)[C@@H](NC(=O)[C@H](Cc1ccccc1)NC(=O)[C@H](CCC(=O)O)NC(=O)C(C)(C)NC(=O)[C@H](CCC(N)=O)NC(=O)[C@H](C)NC(=O)[C@H](CCCCNC(=O)COCCOCCNC(=O)COCCOCCNC(=O)CC[C@H](NC(=O)CCCCCCCCCOc1ccc(C(=O)O)cc1)C(=O)O)NC(=O)[C@H](CCCN)NC(=O)[C@H](CC(=O)O)NC(=O)[C@H](CC(C)C)NC(=O)[C@](C)(CC(C)C)NC(=O)[C@@H](NC(=O)[C@H](CO)NC(=O)[C@H](Cc1ccncc1)NC(=O)[C@H](CC(=O)O)NC(=O)[C@H](CO)NC(=O)[C@@H](NC(=O)[C@](C)(Cc1ccccc1F)NC(=O)[C@@H](NC(=O)CNC(=O)[C@H](CCC(=O)O)NC(=O)C(C)(C)NC(=O)[C@@H](N)Cc1ccc(O)cc1)[C@@H](C)O)[C@@H](C)O)[C@@H](C)CC)[C@@H](C)CC)C(=O)N[C@@H](CCCCNC(=O)COCCOCCNC(=O)COCCOCCNC(=O)CC[C@H](NC(=O)CCCCCCCCCOc1ccc(C(=O)O)cc1)C(=O)O)C(=O)NCC(=O)NCC(=O)N1CCC[C@H]1C(=O)N[C@@H](CO)C(=O)N[C@@H](CO)C(=O)NCC(=O)N[C@@H](C)C(=O)N1CCC[C@H]1C(=O)N1CCC[C@H]1C(=O)N1CCC[C@H]1C(=O)N[C@@H](CO)C(N)=O [Example 129] | 97.9% | 1.28 nM | > 9950 nM |  |
| CC[C@H](C)[C@H](NC(=O)[C@H](CC(C)C)NC(=O)[C@](C)(Cc1ccc(O)cc1)NC(=O)[C@@H](CCC(=O)O)NC(=O)[C@@H](NC(=O)[C@H](Cc1ccccc1)NC(=O)[C@H](CCC(=O)O)NC(=O)[C@H](CCCN)NC(=O)[C@H](CCC(N)=O)NC(=O)[C@H](C)NC(=O)[C@H](CCCCNC(=O)COCCOCCNC(=O)COCCOCCNC(=O)CC[C@H](NC(=O)CCCCCCCCCCCCC(=O)O)C(=O)O)NC(=O)[C@H](CCCN)NC(=O)[C@H](CC(=O)O)NC(=O)[C@H](CC(C)C)NC(=O)[C@](C)(CC(C)C)NC(=O)[C@@H](NC(=O)[C@H](CO)NC(=O)[C@H](Cc1ccncc1)NC(=O)[C@H](CC(=O)O)NC(=O)[C@H](CO)NC(=O)[C@@H](NC(=O)[C@](C)(Cc1ccccc1F)NC(=O)[C@@H](NC(=O)CNC(=O)[C@H](CCC(=O)O)NC(=O)C(C)(C)NC(=O)[C@@H](N)Cc1ccc(O)cc1)[C@@H](C)O)[C@@H](C)O)[C@@H](C)CC)[C@@H](C)CC)C(=O)N[C@@H](CCC(=O)O)C(=O)NCC(=O)NCC(=O)N[C@@H](CCCCNC(=O)COCCOCCNC(=O)COCCOCCNC(=O)CC[C@H](NC(=O)CCCCCCCCCCCCC(=O)O)C(=O)O)C(=O)N[C@@H](CO)C(=O)N[C@@H](CO)C(=O)NCC(=O)N[C@@H](C)C(=O)N1CCC[C@H]1C(=O)N1CCC[C@H]1C(=O)N1CCC[C@H]1C(=O)N[C@@H](CO)C(N)=O [Example 149] |  |  |  | Emax (hGLP-1R; HEK293, percent of maximal response to GLP-1(7-36)NH2, 37° C., read-out: hGLP-1R Emax, % ± SEM): 98.3 ± 0.579%; EC50 (hGLP-1R; incubated at 37° C., read-out: hGLP-1R EC50, nM (SEM, n)): 1.5 nM; EC50 (hGCGR; cAMP, incubated at 37° C., 0.1% bovine casein (no human serum albumin), read-out: hGCGR EC50, nM (SEM, n)): > 9950 nM |

Source: patent US20230265151A1, “GIP/GLP1 CO-AGONIST COMPOUNDS” (priority 2020, published 2023)
